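A five-concentration, 48-hour dose response in 96-well plates underlies each endpoint, interpolated linearly between surrounding concentrations. Definition used: TGI = concentration required for complete inhibition of growth.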
Key:
Experiment in all cases: growth of human tumour cells (NCI), 48 h
786-0 renal = tested on: 786-0 renal
A549 NSCLC = tested on: A549 NSCLC
ACHN renal = tested on: ACHN renal
CAKI-1 renal = tested on: CAKI-1 renal
CCRF-CEM leukemia = tested on: CCRF-CEM leukemia
COLO 205 colon = tested on: COLO 205 colon
DLD-1 colon = tested on: DLD-1 colon
DMS 114 small cell lung = tested on: DMS 114 small cell lung
DMS 273 small cell lung = tested on: DMS 273 small cell lung
EKVX NSCLC = tested on: EKVX NSCLC
HCC-2998 colon = tested on: HCC-2998 colon
HCT-116 colon = tested on: HCT-116 colon
HCT-15 colon = tested on: HCT-15 colon
HL-60(TB) leukemia = tested on: HL-60(TB) leukemia
HOP-18 NSCLC = tested on: HOP-18 NSCLC
HOP-62 NSCLC = tested on: HOP-62 NSCLC
HOP-92 NSCLC = tested on: HOP-92 NSCLC
HT29 colon = tested on: HT29 colon
IGROV1 ovarian = tested on: IGROV1 ovarian
K-562 leukemia = tested on: K-562 leukemia
KM12 colon = tested on: KM12 colon
KM20L2 colon = tested on: KM20L2 colon
LOX IMVI melanoma = tested on: LOX IMVI melanoma
LXFL 529 NSCLC = tested on: LXFL 529 NSCLC
M14 melanoma = tested on: M14 melanoma
M19-MEL melanoma = tested on: M19-MEL melanoma
MALME-3M melanoma = tested on: MALME-3M melanoma
MOLT-4 leukemia = tested on: MOLT-4 leukemia
NCI-H226 lung = tested on: NCI-H226 lung
NCI-H460 lung = tested on: NCI-H460 lung
OVCAR-3 ovarian = tested on: OVCAR-3 ovarian
OVCAR-4 ovarian = tested on: OVCAR-4 ovarian
OVCAR-5 ovarian = tested on: OVCAR-5 ovarian
OVCAR-8 ovarian = tested on: OVCAR-8 ovarian
RPMI-8226 leukemia = tested on: RPMI-8226 leukemia
RXF 393 renal = tested on: RXF 393 renal
RXF-631 renal = tested on: RXF-631 renal
SF-295 CNS = tested on: SF-295 CNS
SK-MEL-2 melanoma = tested on: SK-MEL-2 melanoma
SK-MEL-28 melanoma = tested on: SK-MEL-28 melanoma
SK-MEL-5 melanoma = tested on: SK-MEL-5 melanoma
SK-OV-3 ovarian = tested on: SK-OV-3 ovarian
SN12C renal = tested on: SN12C renal
SNB-19 CNS = tested on: SNB-19 CNS
SNB-75 CNS = tested on: SNB-75 CNS
SNB-78 CNS = tested on: SNB-78 CNS
SW-620 colon = tested on: SW-620 colon
TK-10 renal = tested on: TK-10 renal
U251 CNS = tested on: U251 CNS
UACC-257 melanoma = tested on: UACC-257 melanoma
UACC-62 melanoma = tested on: UACC-62 melanoma
UO-31 renal = tested on: UO-31 renal
XF 498 CNS = tested on: XF 498 CNS
A498 renal = tested on: A498 renal
NCI-H23 lung = tested on: NCI-H23 lung
SF-268 CNS = tested on: SF-268 CNS
SF-539 CNS = tested on: SF-539 CNS
SR leukemia = tested on: SR leukemia
NCI-H522 lung = tested on: NCI-H522 lung

Measured: TGI

CC1(C)C(O)OC(O)C1(C)C (stereo not drawn)
94.6 µM: RXF 393 renal
not listed: A498 renal | NCI-H23 lung | SF-268 CNS | SF-539 CNS | SR leukemia | NCI-H522 lung
> 100 µM: all other assays above

CC(=O)NC1C(O)CC(OCCCSCCN)(C(=O)O)OC1C(O)C(O)CO (stereo not drawn)
not listed: 786-0 renal | HOP-62 NSCLC | K-562 leukemia | M19-MEL melanoma | OVCAR-3 ovarian | SK-OV-3 ovarian | UACC-62 melanoma | UO-31 renal | NCI-H522 lung
> 100 µM: all other assays above

CCOC(=O)C1N(S(=O)(=O)c2ccc(C)cc2)CCC12C(c1ccc(OC)c(OC)c1)=Nc1ccccc12 (stereo not drawn)
not listed: HCT-15 colon | MOLT-4 leukemia | SK-MEL-2 melanoma | SR leukemia
> 100 µM: all other assays above

From PubChem BioAssay (NCI)
